Measured values as given in patent publication US8710043B2, “TRPM8 antagonists and their use in treatments” (Amgen Inc., priority 2011, dated 2014).

molecular target: T1, human TRPM8 (Homo sapiens, UniProt Q7Z2W7); experiment: Luminescence readout assay for measuring intracellular calcium, icilin activation; assay type: cell-based; details: CHO cells expressing human TRPM8, aequorin luminescence, 1 μM icilin activation; read-out: hTRPM8 IC50
T1 construct: expressed in transfected cells; host or cells: Chinese hamster ovary (CHO) cells, T-REx tetracycline-inducible system, co-transfected with aequorin
How it was run: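 The read-out was luminescence reporting intracellular calcium, recorded by a CCD-based luminometer. Compounds were preincubated for 2.5 min before agonist challenge with 1 μM icilin. Human TRPM8 was expressed in a stable T-REx CHO line, induced with 0.5 μg/mL tetracycline the day before.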

T1 sequence (Q7Z2W7 whole entry): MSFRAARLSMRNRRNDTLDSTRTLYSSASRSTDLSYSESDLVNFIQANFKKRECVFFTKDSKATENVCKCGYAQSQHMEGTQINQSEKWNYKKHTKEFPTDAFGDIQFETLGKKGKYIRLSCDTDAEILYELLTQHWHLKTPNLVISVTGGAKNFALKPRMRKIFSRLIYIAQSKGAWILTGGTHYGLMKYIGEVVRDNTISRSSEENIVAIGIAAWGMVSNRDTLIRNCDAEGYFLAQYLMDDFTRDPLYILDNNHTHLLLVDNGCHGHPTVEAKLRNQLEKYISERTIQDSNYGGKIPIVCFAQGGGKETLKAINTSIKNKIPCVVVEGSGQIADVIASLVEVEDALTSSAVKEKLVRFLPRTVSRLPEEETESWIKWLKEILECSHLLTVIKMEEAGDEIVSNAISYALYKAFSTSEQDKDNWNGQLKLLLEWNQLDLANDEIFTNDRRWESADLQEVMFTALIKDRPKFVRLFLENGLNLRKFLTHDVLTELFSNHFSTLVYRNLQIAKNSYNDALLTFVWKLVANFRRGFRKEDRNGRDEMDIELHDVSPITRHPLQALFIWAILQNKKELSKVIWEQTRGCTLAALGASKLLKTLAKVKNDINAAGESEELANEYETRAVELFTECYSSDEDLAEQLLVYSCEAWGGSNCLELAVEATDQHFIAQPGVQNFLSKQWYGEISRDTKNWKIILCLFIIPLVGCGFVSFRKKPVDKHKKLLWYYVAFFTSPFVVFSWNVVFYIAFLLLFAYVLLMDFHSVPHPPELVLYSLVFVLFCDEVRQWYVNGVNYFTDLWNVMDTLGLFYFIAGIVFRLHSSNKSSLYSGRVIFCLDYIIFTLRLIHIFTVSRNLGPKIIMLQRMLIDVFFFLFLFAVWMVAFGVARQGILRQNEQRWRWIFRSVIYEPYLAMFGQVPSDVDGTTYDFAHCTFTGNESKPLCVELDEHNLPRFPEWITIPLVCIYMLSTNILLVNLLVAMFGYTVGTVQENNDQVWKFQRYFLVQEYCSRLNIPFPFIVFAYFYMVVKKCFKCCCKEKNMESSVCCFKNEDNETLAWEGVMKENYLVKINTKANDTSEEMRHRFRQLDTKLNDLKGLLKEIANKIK

| Compound | IC50 [nM] |
| --- | --- |
| O=C(CN1CCOC1=O)N[C@@H](c1ccc(C(F)(F)F)cc1)c1ncccc1C(F)(F)F [Example 154, (S)-2-(2-oxooxazolidin-3-yl)-N-((4-(trifluoromethyl)phenyl)(3-(trifluoromethyl)pyridin-2-yl)methyl)acetamide] | 2530 |
| O=C(CCc1c[nH]cn1)N[C@@H](c1ccc(C(F)(F)F)cc1)c1ncccc1C(F)(F)F [Example 155, (S)-3-(1H-imidazol-4-yl)-N-((4-(trifluoromethyl)phenyl)(3-(trifluoromethyl)pyridin-2-yl)methyl)propanamide 2,2,2-trifluoroacetate] | 1440 |
| CC(C)Cc1cc(C(=O)N[C@@H](c2ccc(C(F)(F)F)c(F)c2)c2ncccc2C(F)(F)F)c2ccccc2n1 [Example 156, (S)-N-((3-fluoro-4-(trifluoromethyl)phenyl)(3-(trifluoromethyl)pyridin-2-yl)methyl)-2-isobutylquinoline-4-carboxamide bis (2,2,2-trifluoroacetate)] | 301 |
| O=C(CC1CCOC1)N[C@@H](c1ccc(C(F)(F)F)cc1)c1ncccc1C(F)(F)F (stereo partly drawn) [Example 157, 2-(THF-3-yl)-N-((S)-(4-(trifluoromethyl)phenyl)(3-(trifluoromethyl)pyridin-2-yl)methyl)acetamide] | 716 |
| O=C(Cc1c[nH]cn1)N[C@@H](c1ccc(C(F)(F)F)cc1)c1ncccc1C(F)(F)F [Example 158, (S)-2-(1H-imidazol-4-yl)-N-((4-(trifluoromethyl)phenyl)(3-(trifluoromethyl)pyridin-2-yl)methyl)acetamide] | 1950 |
| Nc1n[nH]c(C(=O)N[C@@H](c2ccc(C(F)(F)F)cc2)c2ncccc2C(F)(F)F)n1 [Example 159, (S)-3-amino-N-((4-(trifluoromethyl)phenyl)(3-(trifluoromethyl)pyridin-2-yl)methyl)-1H-1,2,4-triazole-5-carboxamide] | 2210 |
| Cc1nccn1CC(=O)N[C@@H](c1ccc(C(F)(F)F)cc1)c1ncccc1C(F)(F)F [Example 160, (S)-2-(2-methyl-1H-imidazol-1-yl)-N-((4-(trifluoromethyl)phenyl)(3-(trifluoromethyl)pyridin-2-yl)methyl)acetamide] | 3320 |
| O=C(Cn1ccnc1)N[C@@H](c1ccc(C(F)(F)F)cc1)c1ncccc1C(F)(F)F [Example 161, (S)-2-(1H-imidazol-1-yl)-N-((4-(trifluoromethyl)phenyl)(3-(trifluoromethyl)pyridin-2-yl)methyl)acetamide 2,2,2-trifluoroacetate] | 3370 |
| CC(=O)NC(C)C(=O)N[C@@H](c1ccc(C(F)(F)F)cc1)c1ncccc1C(F)(F)F (stereo partly drawn) [Example 162, 2-acetamido-N-((S)-(4-(trifluoromethyl)phenyl)(3-(trifluoromethriyl)pyridin-2-yl)methyl)propanamide] | 4380 |
| O=C1CC(C(=O)N[C@@H](c2ccc(C(F)(F)F)cc2)c2ncccc2C(F)(F)F)CN1 (stereo partly drawn) [Example 163, 5-oxo-N-((S)-(4-(trifluoromethyl)phenyl)(3-(trifluoromethyl)pyridin-2-yl)methyl)pyrrolidine-3-carboxamide] | 3180 |
| O=C(Cc1ccccc1OC(F)(F)F)N[C@@H](c1ccc(C(F)(F)F)cc1)c1ncccc1C(F)(F)F [Example 164] | 294 |
| O=C(N[C@@H](c1ccc(C(F)(F)F)cc1)c1ncccc1F)c1ccc2cn[nH]c2c1 [Example 166, (S)-N-((3-fluoropyridin-2-yl)(4-(trifluoromethyl)phenyl)methyl)-1H-indazole-6-carboxamide] | 7.6 |
| N#Cc1ccc(C(=O)N[C@@H](c2ccc(C(F)(F)F)cc2)c2ncccc2F)cc1 [Example 167, (S)-4-cyano-N-((3-fluoropyridin-2-yl)(4-(trifluoromethyl)phenyl)methyl)benzamide] | 21.5 |
| N#Cc1cccc(C(=O)N[C@@H](c2ccc(C(F)(F)F)cc2)c2ncccc2C(F)(F)F)c1 [Example 168, (S)-3-cyano-N-((4-(trifluoromethyl)phenyl)(3-(trifluoromethyl)pyridin-2-yl)methyl)be] | 38.4 |
| COc1ccccc1C(=O)N[C@@H](c1ccc(C(F)(F)F)cc1)c1ncccc1F [Example 169, (S)-N-((3-fluoropyridin-2-yl)(4-(trifluoromethyl)phenyl)methyl)-2-methoxybenzamide] | 10.4 |
| O=C(N[C@@H](c1ccc(C(F)(F)F)cc1)c1ncccc1F)c1ccc2nccnc2c1 [Example 170, (S)-N-((3-fluoropyridin-2-yl)(4-(trifluoromethyl)phenyl)methyl)quinoxaline-6-carboxamide] | 23.5 |
| COc1ccc(C(=O)N[C@@H](c2ccc(C(F)(F)F)cc2)c2ncccc2C(F)(F)F)cc1 [Example 171, (S)-4-methoxy-N-((4-(trifluoromethyl)phenyl)(3-(trifluoromethyl)pyridin-2-yl)methyl)benzamide] | 17.3 |
| COc1ccc(C(=O)N[C@@H](c2ccc(C(F)(F)F)cc2)c2ncccc2F)cc1 [Example 172, (S)-N-((3-fluoropyridin-2-yl)(4-(trifluoromethyl)phenyl)methyl)-4-methoxybenzamide] | 18.1 |
| O=C(N[C@@H](c1ccc(C(F)(F)F)cc1)c1ncccc1F)c1ccc(O)cn1 [Example 173, (S)-N-((3-fluoropyridin-2-yl)(4-(trifluoromethyl)phenyl)methyl)-5-hydroxypicolinamide] | 15.3 |
| CC(=O)Oc1ccc(C(=O)N[C@@H](c2ccc(C(F)(F)F)cc2)c2ncccc2C(F)(F)F)cc1 [Example 174, (S)-4-(((4-(trifluoromethyl)phenyl)(3-trifluoromethyl)methyl)carbamoyl)phenyl acetate] | 22.9 |

The remaining lines, values ahead:

| IC50 [nM] | Compound |
| --- | --- |
| 30.3 | O=C(N[C@@H](c1ccc(C(F)(F)F)cc1)c1ncccc1C(F)(F)F)c1ccc2cn[nH]c2c1 [Example 175, (S)-N-((4-(trifluoromethyl)phenyl)(3-(trifluoromethyl)pyridin-2-yl)methyl)-1H-indazole-6-carboxamide] |
| 21.9 | COc1ccccc1C(=O)N[C@@H](c1ccc(C(F)(F)F)cc1)c1ncccc1C(F)(F)F [Example 176, (S)-2-methoxy-N-((4-(trifluoromethyl)phenyl)(3-(trifluoromethyl)pyridin-2-yl)methyl)benzamide] |
| 20.8 | O=C(N[C@@H](c1ccc(C(F)(F)F)cc1)c1ncccc1F)c1ccc2[nH]c(=O)[nH]c2c1 [Example 177, (S)-N-((3-fluoropyridin-2-yl)(4-(trifluoromethyl)phenyl)methyl)-2-oxo-2,3-dihydro-1H-benzo[d]imidazole-5-carboxamide] |
| 26.2 | O=C(N[C@@H](c1ccc(C(F)(F)F)cc1)c1ncccc1C(F)(F)F)c1ccncc1 [Example 178, (S)-N-((4-(trifluoromethyl)phenyl)(3-(trifluoromethyl)pyridin-2-yl)methyl)isonicotinamide] |
| 39.8 | O=C(O)c1cccc(C(=O)N[C@@H](c2ccc(C(F)(F)F)cc2)c2ncccc2C(F)(F)F)c1 [Example 179, (S)-3-(((4-(trifluoromethyl)phenyl)(3-(trifluoromethyl)pyridin-2-yl)methyl)carbamoyl)benzoic acid] |
| 29.7 | O=C(N[C@@H](c1ccc(C(F)(F)F)cc1)c1ncccc1F)c1ccccc1 [Example 180, (S)-N-((3-fluoropyridin-2-yl)(4-(trifluoromethyl)phenyl)methyl)benzamide] |
| 41.8 | Cc1cncc(C(=O)N[C@@H](c2ccc(C(F)(F)F)cc2)c2ncccc2C(F)(F)F)c1 [Example 182, (S)-5-methyl-N-((4-(trifluoromethyl)phenyl)(3-(trifluoromethyl)pyridin-2-yl)methyl)nicotinamide 2,2,2-trifluoroacetate] |
| 39.6 | O=C(N[C@@H](c1ccc(C(F)(F)F)cc1)c1ncccc1C(F)(F)F)c1ccc(F)cc1 [Example 183, (S)-4-fluoro-N-((4-(trifluoromethyl)phenyl)(3-(trifluoromethyl)pyridin-2-yl)methyl)benzamide] |
| 52.9 | N#Cc1cccc(C(=O)N[C@@H](c2ccc(C(F)(F)F)cc2)c2ncccc2F)c1 [Example 184, (S)-3-cyano-N-((3-fluoropyridin-2-yl)(4-(trifluoromethyl)phenyl)methyl)benzamide] |
| 29 | O=C(N[C@@H](c1ccc(C(F)(F)F)cc1)c1ncccc1C(F)(F)F)c1ccc(Cl)cc1 [Example 185, (S)-4-chloro-N-((4-(trifluoromethyl)phenyl)(3-(trifluoromethyl)pyridin-2-yl)methyl)benzamide] |
| 49.2 | CN(C)c1cccc(C(=O)N[C@@H](c2ccc(C(F)(F)F)cc2)c2ncccc2C(F)(F)F)c1 [Example 186, (S)-3-(dimethylamino)-N-((4-(trifluoromethyl)phenyl)(3-(trifluoromethyl)pyridin-2-yl)methyl)benzamide] |
| 45.3 | O=C(N[C@@H](c1ccc(C(F)(F)F)cc1)c1ncccc1F)c1cccc(F)c1 [Example 187, (S)-3-fluoro-N-((3-fluoropyridin-2-yl)(4-(trifluoromethyl)phenyl)methyl)benzamide] |
| 80.6 | COC(=O)c1cccc(C(=O)N[C@@H](c2ccc(C(F)(F)F)cc2)c2ncccc2C(F)(F)F)c1 [Example 189, (S)-methyl 3-(((4-(trifluoromethyl)phenyl)(3-(trifluoromethyl)pyridin-2-yl)methyl)carbamoyl)benzoate] |
| 33.1 | Cc1ncoc1C(=O)N[C@@H](c1ccc(C(F)(F)F)cc1)c1ncccc1C(F)(F)F [Example 190, (S)-4-methyl-N-((4-(trifluoromethyl)phenyl)(3-(trifluoromethyl)pyridin-2-yl)methyl)oxazole-5-carboxamide] |
| 78.9 | COc1cccc(C(=O)N[C@@H](c2ccc(C(F)(F)F)cc2)c2ncccc2C(F)(F)F)c1 [Example 191, (S)-3-methoxy-N-((4-(trifluoromethyl)phenyl)(3-(trifluoromethyl)pyridin-2-yl)methyl)benzamide] |
